Data on 53 molecules can be found in PMC7921063, “The Effects of Genetic Mutations and Drugs on the Activity of the Thiamine Transporter, SLC19A2” (The AAPS Journal, 2021).

Bounds are passed on as bounds.

The first assay concerns the target T1, SLC19A2 (Homo sapiens, UniProt O60779).
T1 sequence (O60779 1-497): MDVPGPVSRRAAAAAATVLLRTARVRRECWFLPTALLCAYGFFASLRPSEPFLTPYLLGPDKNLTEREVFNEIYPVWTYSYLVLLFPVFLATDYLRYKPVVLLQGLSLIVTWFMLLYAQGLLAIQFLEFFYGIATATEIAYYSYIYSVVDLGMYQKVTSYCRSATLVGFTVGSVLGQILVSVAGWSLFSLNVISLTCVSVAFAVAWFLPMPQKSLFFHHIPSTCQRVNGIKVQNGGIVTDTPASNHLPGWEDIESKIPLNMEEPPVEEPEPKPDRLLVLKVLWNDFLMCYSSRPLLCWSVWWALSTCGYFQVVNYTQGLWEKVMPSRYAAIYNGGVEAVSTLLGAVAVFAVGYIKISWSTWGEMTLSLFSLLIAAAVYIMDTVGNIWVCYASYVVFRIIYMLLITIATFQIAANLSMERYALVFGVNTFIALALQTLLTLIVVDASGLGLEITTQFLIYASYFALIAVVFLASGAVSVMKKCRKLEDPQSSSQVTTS
As to the kind of experiment: SLC19A2 inhibitor screen: [3H]-thiamine uptake in SLC19A2-overexpressing HEK293 cells. The assay is classed as cell-based. The arrangement: host or cells: HEK293, stably overexpressing SLC19A2 and transiently transfected with a further 500 ng wild-type plasmid. The following applies: HEK293, 10 min, drug 1 mM, [3H]-thiamine 25 nM, 10 min, HEK293 cells expressing SLC19A2; relative to uptake without inhibitor; read-out: Average % SLC19A2 thiamine uptake. As to the method: Plasmids encoding wild-type SLC19A2 and three TRMA-associated variants were generated by Genscript Inc. (Piscataway, USA). Methods for generation of stably overexpressing SLC19A2 cell lines and uptake studies have been previously described ([11], [12]). Inhibition and kinetic studies were performed in SLC19A2-overexpressing stable HEK293 cells transiently transfected with an additional 500 ng of SLC19A2 wild-type plasmid.
Prescription drugs associated with MA ([2]) in addition to others belonging to listed drug classes (e.g., proton-pump inhibitors; 63 compounds total) were screened in triplicate at 1 mM to evaluate inhibitory activity against SLC19A2. […] Each plate contained control wells exposed for 10 min (within linear range, Supplemental Figure 1) to [^3H]-thiamine (positive control), [^3H]-thiamine plus 1 mM of amprolium (negative control), and [^3H]-thiamine plus 1 mM of screened drug (3 replicates per drug). Methods have been previously described ([11]). SLC19A2 inhibitors were defined as compounds that decreased SLC19A2-mediated thiamine uptake by 50% or more at 1 mM. For compounds that met this definition, inhibition assays were conducted and IC50 values were calculated by nonlinear fitting using GraphPad Prism 7 (La Jolla, CA) ([11]).
Fig. 3 Common mechanisms of drug-induced megaloblastic anemia and SLC19A2 inhibitor drug screen workflow. A list of drugs associated with inducing megaloblastic anemia through various mechanisms was compiled (a). Each drug was dissolved to a final concentration of 1 mM in buffer containing radiolabeled [^3H] thiamine and exposed to HEK293 cells expressing SLC19A2 wild-type transporter for 10 min.
For `Nc1nc(N)c2nc(-c3ccccc3)c(N)nc2n1` [Triamterene], the remaining activity at 1000 µM stood at 111%.

`Cc1c(OCC(F)(F)F)ccnc1C[S+]([O-])c1nc2ccccc2[nH]1` (stereo not shown) [Lansoprazole]: the remaining activity at 1000 µM came to 45.9%.

`NC(N)=Nc1nc(CSCCC(N)=NS(N)(=O)=O)cs1` [Famotidine]: the remaining activity at 1000 µM was 74%.

Take `O=C(O)c1cc(/N=N/c2ccc(S(=O)(=O)Nc3ccccn3)cc2)ccc1O` [Sulfasalazine]: the remaining activity at 1000 µM worked out at 101%.

Consider `C/C(O)=C(\C#N)C(=O)Nc1ccc(C(F)(F)F)cc1` [Teriflunomide], for which the remaining activity at 1000 µM stood at 95.7%.

Take `CNC(C)C1CCC(N)C(OC2C(N)CC(N)C(OC3OCC(C)(O)C(NC)C3O)C2O)O1` (stereo not shown) [Gentamicin]: the remaining activity at 1000 µM worked out at 81.9%.

Turning to `COc1c(C)c2c(c(O)c1C/C=C(\C)CCC(=O)O)C(=O)OC2` [Mycophenolic acid], the remaining activity at 1000 µM was 82.7%.

With `Nc1ccn([C@@H]2O[C@H](CO)[C@@H](O)C2(F)F)c(=O)n1` [Gemcitabine], the remaining activity at 1000 µM came to 63.3%.

For the molecule `[H]/N=C(\N/C(=N/[H])Nc1ccc(Cl)cc1)NC(C)C` [Proguanil], the remaining activity at 1000 µM amounted to 68.8%.

`CC1(C)S[C@@H]2[C@H](NC(=O)C(C(=O)O)c3ccccc3)C(=O)N2[C@H]1C(=O)O` (stereo partly shown) [Carbenicillin]: the remaining activity at 1000 µM was 90.8%.

On to `Cn1cnc([N+](=O)[O-])c1Sc1ncnc2nc[nH]c12` [Azathioprine], for which the remaining activity at 1000 µM is 87.2%.

With `Nc1ccc(O)c(C(=O)O)c1` [5-aminosalicylic acid], the remaining activity at 1000 µM came out at 87.7%.

Regarding `S=c1[nH]cnc2nc[nH]c12` [Mercaptopurine], the remaining activity at 1000 µM amounted to 90.5%.

In the case of `NNC(=O)c1ccncc1` [Isoniazid], the remaining activity at 1000 µM turned out to be 108%.

As to `COc1ccc2nc([S@@+]([O-])Cc3ncc(C)c(OC)c3C)[nH]c2c1` [Esomeprazole], the remaining activity at 1000 µM stood at 57.7%.

As for `C=C[C@H]1C[N@@]2CC[C@H]1C[C@@H]2[C@@H](O)c1ccnc2ccc(OC)cc12` [Quinidine], the remaining activity at 1000 µM came to 53%.

On to `[H]/N=C(/N)N/C(=N/[H])NCCc1ccccc1` [Phenformin], for which the remaining activity at 1000 µM worked out at 82.3%.

`CC[C@H]1OC(=O)[C@H](C)[C@@H](O[C@H]2C[C@@](C)(OC)[C@@H](O)[C@H](C)O2)[C@H](C)[C@@H](O[C@@H]2O[C@H](C)C[C@H](N(C)C)[C@H]2O)[C@](C)(OC)C[C@@H](C)C(=O)[C@H](C)[C@@H](O)[C@]1(C)O` [Clarithromycin]: the remaining activity at 1000 µM came to 58.2%.

For the molecule `CNC(=C[N+](=O)[O-])NCCSCc1ccc(CN(C)C)o1` [Ranitidine], the remaining activity at 1000 µM was found to be 111%.

As to `CO[C@H]1/C=C/O[C@@]2(C)Oc3c(C)c(O)c4c(O)c(c(/C=N/N5CCN(C)CC5)c(O)c4c3C2=O)NC(=O)/C(C)=C\C=C\[C@H](C)[C@H](O)[C@@H](C)[C@@H](O)[C@@H](C)[C@H](OC(C)=O)[C@@H]1C` [Rifampicin], the remaining activity at 1000 µM came to 56.1%.

As for `CN/C(=N/CCSCc1nc[nH]c1C)NC#N` [Cimetidine], the remaining activity at 1000 µM was determined as 107%.

For the molecule `C[C@H]1c2cccc(O)c2C(=O)C2=C(O)[C@]3(O)C(=O)C(C(N)=O)=C(O)[C@@H](N(C)C)[C@@H]3[C@@H](O)[C@@H]21` [Doxycycline], the remaining activity at 1000 µM is 67.8%.

As to `Nc1nc(F)nc2c1ncn2[C@@H]1O[C@H](CO)[C@@H](O)[C@@H]1O` [Fludarabine], the remaining activity at 1000 µM is 71.1%.

Take `CCc1nc(N)nc(N)c1-c1ccc(Cl)cc1` [Pyrimethamine]: the remaining activity at 1000 µM worked out at 99.2%.

As for `O=C(N[C@H](CO)[C@H](O)c1ccc([N+](=O)[O-])cc1)C(Cl)Cl` [Chloramphenicol], the remaining activity at 1000 µM was 91.5%.

With `COc1cc(NC(C)CCCN)c2ncccc2c1` (stereo not shown) [Primaquine], the remaining activity at 1000 µM is 76.5%.

On to `Cc1cnc(Nc2ccc(OCCN3CCCC3)cc2)nc1Nc1cccc(S(=O)(=O)NC(C)(C)C)c1` [Fedratinib], for which the remaining activity at 1000 µM is 21%.

Take `CO[C@H]1O[C@@H]2O[C@@]3(C)CC[C@H]4[C@H](C)CC[C@@H]([C@H]1C)[C@@]24OO3` [Artemether]: the remaining activity at 1000 µM amounted to 67.4%.

`O=C1NC(=O)C(c2ccccc2)(c2ccccc2)N1` [Phenytoin]: the remaining activity at 1000 µM is 75%.

In the case of `Cc1oncc1C(=O)Nc1ccc(C(F)(F)F)cc1` [Leflunomide], the remaining activity at 1000 µM is 57.7%.

Take `O=c1[nH]cc(F)c(=O)[nH]1` [5-fluorouracil]: the remaining activity at 1000 µM stood at 93.8%.

As for `C=C[C@H]1C[N@@]2CC[C@H]1C[C@H]2[C@H](O)c1ccnc2ccc(OC)cc12` [Quinine], the remaining activity at 1000 µM worked out at 69.7%.

In the case of `CN(Cc1cnc2nc(N)nc(N)c2n1)c1ccc(C(=O)N[C@@H](CCC(=O)O)C(=O)O)cc1` [Methotrexate], the remaining activity at 1000 µM worked out at 84.9%.

For `Cc1nc2ccc(CN(C)c3ccc(C(=O)N[C@@H](CCC(=O)O)C(=O)O)s3)cc2c(=O)[nH]1` [Raltitrexed], the remaining activity at 1000 µM came to 88.2%.

As to `CC1(C)S[C@@H]2[C@H](NC(=O)[C@H](N)c3ccc(O)cc3)C(=O)N2[C@H]1C(=O)O` [Amoxicillin], the remaining activity at 1000 µM was 95.9%.

`NCC[C@H](O)C(=O)N[C@@H]1C[C@H](N)[C@@H](O[C@H]2O[C@H](CN)[C@@H](O)[C@H](O)[C@H]2O)[C@H](O)[C@H]1O[C@H]1O[C@H](CO)[C@@H](O)[C@H](N)[C@H]1O` [Amikacin]: the remaining activity at 1000 µM stood at 98.7%.

For `CN(C)C(=N)N=C(N)N` [Metformin], the remaining activity at 1000 µM stood at 74.2%.

`CN(C)[C@@H]1C(O)=C(C(N)=O)C(=O)[C@@]2(O)C(O)=C3C(=O)c4c(O)cccc4[C@@](C)(O)[C@H]3C[C@@H]12` [Tetracycline]: the remaining activity at 1000 µM worked out at 83.6%.

On to `Oc1ncnc2[nH]ncc12` [Allopurinol], for which the remaining activity at 1000 µM was found to be 96.9%.

`Cc1onc(-c2ccccc2)c1C(=O)N[C@@H]1C(=O)N2[C@@H]1SC(C)(C)[C@@H]2C(=O)O` [Oxacillin]: the remaining activity at 1000 µM worked out at 110%.

For `CC[C@H]1OC(=O)[C@H](C)[C@@H](O[C@H]2C[C@@](C)(OC)[C@@H](O)[C@H](C)O2)[C@H](C)[C@@H](O[C@@H]2O[C@H](C)C[C@H](N(C)C)[C@H]2O)[C@](C)(O)C[C@@H](C)CN(C)[C@H](C)[C@@H](O)[C@]1(C)O` [Azithromycin], the remaining activity at 1000 µM was found to be 81.9%.

For `COc1ncnc(NS(=O)(=O)c2ccc(N)cc2)c1OC` [Sulfadoxine], the remaining activity at 1000 µM stood at 94.8%.

Consider `Nc1nc2nc[nH]c2c(=S)[nH]1` [Thioguanine], for which the remaining activity at 1000 µM is 93.3%.

Take `Nc1nc(N)c2nc(CNc3ccc(C(=O)N[C@@H](CCC(=O)O)C(=O)O)cc3)cnc2n1` [Aminopterin]: the remaining activity at 1000 µM stood at 93%.

As to `C[C@]12CC[C@@H]3c4ccc(O)cc4CC[C@H]3[C@@H]1CC[C@@H]2O` [Estradiol], the remaining activity at 1000 µM was determined as 112%.

With `COCCCOc1ccnc(C[S+]([O-])c2nc3ccccc3[nH]2)c1C` (stereo not shown) [Rabeprazole], the remaining activity at 1000 µM turned out to be 75.3%.

Take `CC(=O)NC[C@H]1CN(c2ccc(N3CCOCC3)c(F)c2)C(=O)O1` [Linezolid]: the remaining activity at 1000 µM stood at 77.7%.

Still in this assay, the particulars now being: HEK293, 10 min, read-out: Average % SLC19A2 thiamine uptake.
`COc1cc2c(c(OC)c1OC)-c1ccc(OC)c(=O)cc1[C@@H](NC(C)=O)CC2` [Colchicine]: the remaining activity at 1000 µM is 95.9%.

Turning to `CC1(C)S[C@@H]2[C@H](NC(=O)[C@H](N)c3ccccc3)C(=O)N2[C@H]1C(=O)O` [Ampicillin], the remaining activity at 1000 µM was 102%.

Still in this assay, the particulars now being: HEK293, 10 min; at 1 mM; read-out: reduction in thiamine transport (designated SLC19A2 inhibitor).
In the case of `Cc1c(OCC(F)(F)F)ccnc1C[S+]([O-])c1nc2ccccc2[nH]1` (stereo not shown) [Lansoprazole], the inhibition at 1000 µM is not below 50%.

In the case of `Cc1cnc(Nc2ccc(OCCN3CCCC3)cc2)nc1Nc1cccc(S(=O)(=O)NC(C)(C)C)c1` [Fedratinib], the inhibition at 1000 µM is not below 50%.

Staying with this assay, now noted: drug 1 mM, [3H]-thiamine 25 nM, 10 min, HEK293 cells expressing SLC19A2; relative to uptake without inhibitor.
As to `CCCCN(CCCC)CC(O)c1cc(Cl)cc2c1-c1ccc(Cl)cc1/C2=C/c1ccc(Cl)cc1` (stereo not shown) [Lumafantrine], the “Average % SLC19A2 thiamine uptake” value was 87.72%.

As to `O=C1CN(/N=C/c2ccc([N+](=O)[O-])o2)C(=O)N1` [Nitrofuranatoin], the “Average % SLC19A2 thiamine uptake” value was 101.075%.

Consider Neomycin, for which the “Average % SLC19A2 thiamine uptake” value is 86.37%.

Regarding `NC(=O)NO` [Hydroxyurea], the “Average % SLC19A2 thiamine uptake” value is reported as 105.5%.
